The source of these data is US10988459B2 (priority 2015, dated 2021).

The target of the first experiment is human RIP1 kinase domain (2-375) (Homo sapiens (Human), UniProt Q13546). Put plainly: biochemical. It counts as biochemical. As to conditions: Table 5; apparent Ki (Morrison tight-binding fit); 50 nM RIP1 kinase domain, 50 uM ATP, 2 hours incubation; read-out: Ki. Here is the method: Example 794: RIP1 Kinase Inhibition Assays (Biochemical Assay)
Sequence of human RIP1 kinase domain (2-375) (Q13546 2-375): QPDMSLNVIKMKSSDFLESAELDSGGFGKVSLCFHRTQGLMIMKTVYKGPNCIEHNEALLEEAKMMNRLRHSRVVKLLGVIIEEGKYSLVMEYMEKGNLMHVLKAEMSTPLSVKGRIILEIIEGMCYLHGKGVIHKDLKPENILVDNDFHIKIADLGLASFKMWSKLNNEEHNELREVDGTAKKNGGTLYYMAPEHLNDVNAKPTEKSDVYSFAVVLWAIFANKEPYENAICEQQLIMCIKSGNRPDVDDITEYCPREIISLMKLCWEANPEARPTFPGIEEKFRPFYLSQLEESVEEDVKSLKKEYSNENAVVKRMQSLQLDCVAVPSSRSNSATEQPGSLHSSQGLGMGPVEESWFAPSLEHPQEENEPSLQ
The compounds of the present invention were tested for their capacity to inhibit RIP1K activity as described below.
The ability of the receptor interacting protein kinase (RIPK1) to catalyze the hydrolysis of adenosine-5′-triphosphate (ATP) is monitored using the Transcreener ADP (adenosine-5′-diphosphate) assay (BellBrook Labs). Purified human RIP1 kinase domain (2-375) (50 nM) derived from a baculovirus-infected insect cell expression system is incubated with test compounds for 2 hours in 50 mM Hepes buffer (pH 7.5) containing 30 mM MgCl2, 1 mM dithiothreitol, 50 uM ATP, 0.002% Brij-35, and 0.5% dimethyl sulfoxide (DMSO). […] The tracer bound to the antibody is displaced by the ADP generated during the RIP1K reaction, which causes a decrease in fluorescence polarization that is measured by laser excitation at 633 nm with a FP microplate reader M1000. Fractional activity was plotted against test article concentration. Using Genedata Screener software (Genedata; Basel, Switzerland), the data were fit to the tight-binding apparent inhibition constant (Ki^app) Morrison equation [Williams, J. W. and Morrison, J. F. (1979) The kinetics of reversible tight-binding inhibition. Methods Enzymol 63: 437-67]. The following equation was used to calculate fractional activity and Ki^app:
[formula] where [E]T and [I]T are the total concentrations of active enzyme and test article, respectively.
“Method” in the first column of each table refers to the synthetic method(s) used to prepare each compound as shown in the Examples above. In certain examples, chiral column retention times (min) are provided for certain stereoisomers.
For the molecule `CC(C)Cn1cc(-c2cc3n(n2)CCC(NC(=O)c2ncn(Cc4ccccc4)n2)C(=O)N3C)cn1` (racemic) [Example 699, 1-benzyl-N-[2-(1-isobutylpyrazol-4-yl)-4-methyl-5-oxo-7,8-dihydro-6H-pyrazolo[1,5-a][1,3]diazepin-6-yl]-1,2,4-triazole-3-carboxamide], the Ki turned out to be 53 nM.

For `CN1C(=O)[C@@H](NC(=O)c2cc3c(Br)cccc3cn2)CCn2nccc21` (racemic) [Example 700, 5-bromo-N-[rac-(6S)-4-methyl-5-oxo-7,8-dihydro-6H-pyrazolo[1,5-a][1,3]diazepin-6-yl]isoquinoline-3-carboxamide], the Ki is 448 nM.

As to `Cc1cc2n(n1)CC[C@H](NC(=O)c1cc3c(Br)cccc3cn1)C(=O)N2C` (racemic) [Example 701, 5-bromo-N-[rac-(6S)-2,4-dimethyl-5-oxo-7,8-dihydro-6H-pyrazolo[1,5-a][1,3]diazepin-6-yl]isoquinoline-3-carboxamide], the Ki is 618 nM.

Take `Cc1cc2n(n1)CC[C@H](NC(=O)c1cc3c(-c4ccccc4)cccc3cn1)C(=O)N2C` (racemic) [Example 702, 5-phenyl-N-[rac-(6S)-2,4-dimethyl-5-oxo-7,8-dihydro-6H-pyrazolo[1,5-a][1,3]diazepin-6-yl]isoquinoline-3-carboxamide]: the Ki is 33 nM.

Regarding `CN1C(=O)[C@@H](NC(=O)c2cc3c(-c4ccccc4)cccc3cn2)CCn2nccc21` (racemic) [Example 703, 5-phenyl-N-[rac-(6S)-4-methyl-5-oxo-7,8-dihydro-6H-pyrazolo[1,5-a][1,3]diazepin-6-yl]isoquinoline-3-carboxamide], the Ki came out at 24 nM.

As to `CCn1ccc(-c2cc3n(n2)CCC(NC(=O)c2ncn(Cc4ccccc4)n2)C(=O)N3C)n1` (racemic) [Example 704, 1-benzyl-N-[2-(1-ethylpyrazol-3-yl)-4-methyl-5-oxo-7,8-dihydro-6H-pyrazolo[1,5-a][1,3]diazepin-6-yl]-1,2,4-triazole-3-carboxamide], the Ki was found to be 95 nM.

Turning to `CN1C(=O)C(NC(=O)c2ncn(Cc3ccccc3)n2)CCn2nc(Cn3cccn3)cc21` (racemic) [Example 705, 1-benzyl-N-[4-methyl-5-oxo-2-(pyrazol-1-ylmethyl)-7,8-dihydro-6H-pyrazolo[1,5-a][1,3]diazepin-6-yl]-1,2,4-triazole-3-carboxamide], the Ki turned out to be 114 nM.

As for `Cc1nccn1Cc1cc2n(n1)CCC(NC(=O)c1ncn(Cc3ccccc3)n1)C(=O)N2C` (racemic) [Example 706, 1-benzyl-N-[4-methyl-2-[(2-methylimidazol-1-yl)methyl]-5-oxo-7,8-dihydro-6H-pyrazolo[1,5-a][1,3]diazepin-6-yl]-1,2,4-triazole-3-carboxamide], the Ki came to 413 nM.

In the case of `Cc1ncc(-c2cc3n(n2)CCC(NC(=O)c2ncn(Cc4ccccc4)n2)C(=O)N3C)n1C` (racemic) [Example 775, 1-benzyl-N-(2-(1,2-dimethyl-1H-imidazol-5-yl)-4-methyl-5-oxo-5,6,7,8-tetrahydro-4H-pyrazolo[1,5-a][1,3]diazepin-6-yl)-1H-1,2,4-triazole-3-carboxamide], the Ki is 182 nM.

On to `Cc1nc(-c2cc3n(n2)CCC(NC(=O)c2ncn(Cc4ccccc4)n2)C(=O)N3C)cn1C` (racemic) [Example 776, 1-benzyl-N-(2-(1,2-dimethyl-1H-imidazol-4-yl)-4-methyl-5-oxo-5,6,7,8-tetrahydro-4H-pyrazolo[1,5-a][1,3]diazepin-6-yl)-1H-1,2,4-triazole-3-carboxamide], for which the Ki was 212 nM.

Consider `CN1C(=O)C(NC(=O)c2ncn(Cc3ccccc3)n2)CCn2nc(-c3ccn(C)n3)cc21` (racemic) [Example 777, 1-benzyl-N-(4-methyl-2-(1-methyl-1H-pyrazol-3-yl)-5-oxo-5,6,7,8-tetrahydro-4H-pyrazolo[1,5-a][1,3]diazepin-6-yl)-1H-1,2,4-triazole-3-carboxamide], for which the Ki was 70 nM.

As for `CN1C(=O)C(NC(=O)c2ncn(Cc3ccccc3)n2)CCn2nc(-c3cnn(C)c3)cc21` (racemic) [Example 778, 1-benzyl-N-(4-methyl-2-(1-methyl-1H-pyrazol-4-yl)-5-oxo-5,6,7,8-tetrahydro-4H-pyrazolo[1,5-a][1,3]diazepin-6-yl)-1H-1,2,4-triazole-3-carboxamide], the Ki is 171 nM.

Staying with this experiment, now noted: human RIP1 kinase domain (2-375), 50 uM ATP, 2 hours incubation, Transcreener ADP assay; read-out: RIP1 Ki.
Turning to `O=C(N[C@H]1COc2cc(F)cc(F)c2NC1=O)c1n[nH]c2c1C[C@@H](C(F)(F)F)CC2` (single isomer, unassigned) [Example 86], the Ki stood at 20.8 nM.

Turning to `O=C(N[C@H]1COc2cc(F)cc(F)c2NC1=O)c1n[nH]c2c1C[C@H](C(F)(F)F)CC2` (single isomer, unassigned) [Example 87], the Ki turned out to be 104 nM.

Turning to `CN1C(=O)[C@@H](NC(=O)c2cn(Cc3ccccc3)nn2)CCn2nc(C3CC3)cc21` (single isomer, unassigned) [Example 112], the Ki worked out at 139 nM.

For the molecule `CN1C(=O)[C@@H](NC(=O)c2nc3n(n2)[C@@H](c2ccccc2)CC3)CCn2nccc21` (single isomer, unassigned) [Example 125], the Ki came out at 891 nM.

As to `CN1C(=O)[C@@H](NC(=O)c2nc3n(n2)[C@H](c2ccccc2)CC3)CCn2nccc21` (single isomer, unassigned) [Example 126], the Ki came to 24.1 nM.

With `CN1C(=O)[C@@H](NC(=O)c2ncn(Cc3ccccc3)n2)CC[C@@H]2[C@H]1C2(F)F` (single isomer, unassigned) [Example 129], the Ki came to 388 nM.

Turning to `CN1C(=O)[C@@H](NC(=O)c2ncn(Cc3ccccc3)n2)CC[C@H]2[C@@H]1C2(F)F` (single isomer, unassigned) [Example 130], the Ki was more than 10000 nM.

`CCOC(=O)[C@@H]1[C@@H]2CC[C@H](NC(=O)c3ncn(Cc4ccccc4)n3)C(=O)N(C)[C@@H]21` (single isomer, unassigned) [Example 131]: the Ki was 1300 nM.

Consider `CCOC(=O)[C@H]1[C@H]2CC[C@H](NC(=O)c3ncn(Cc4ccccc4)n3)C(=O)N(C)[C@H]21` (single isomer, unassigned) [Example 132], for which the Ki stood at 5000 nM.

Take `CN1C(=O)[C@@H](NC(=O)c2cc3c(cn2)CO[C@@]32CCOC2)COc2ccccc21` (single isomer, unassigned) [Example 159]: the Ki amounted to 327 nM.

As to `CCn1nc(C(=O)N[C@H]2COc3ccccc3N(C)C2=O)c2c1CC[C@@H](C(F)(F)F)C2` (single isomer, unassigned) [Example 184], the Ki came to 407 nM.

For `CCn1nc(C(=O)N[C@H]2COc3ccccc3N(C)C2=O)c2c1CC[C@H](C(F)(F)F)C2` (single isomer, unassigned) [Example 185], the Ki turned out to be 825 nM.

The experiment is the same for the next values; noted with them: tight-binding apparent inhibition constant; human RIP1 kinase domain (2-375) 50 nM, 50 uM ATP, 2 hours; read-out: Ki.
For the molecule `CN1C(=O)[C@@H](NC(=O)c2nc3n(n2)CCO[C@H]3c2ccccc2)COc2ccccc21` (racemic) [Example 695, rac-(8S)-8-phenyl-N-[rac-(3S)-5-methyl-4-oxo-2,3-dihydro-1,5-benzoxazepin-3-yl]-6,8-dihydro-5H-[1,2,4] triazolo[5,1-c][1,4]oxazine-2-carboxamide], the Ki came to 694 nM.

Turning to `CN1C(=O)[C@@H](NC(=O)c2ncc3c(n2)[C@]2(CCCOC2)OC3)COc2ccccc21` (racemic) [Example 696, rac-(75)-N-[rac-(3S)-5-methyl-4-oxo-2,3-dihydro-1,5-benzoxazepin-3-yl]spiro[5H-furo[3,4-d]pyrimidine-7,3′-tetrahydropyran]-2-carboxamide], the Ki worked out at 120 nM.

For the molecule `Cc1cc(F)c2c(c1)OC[C@H](NC(=O)c1nc3n(n1)[C@H](C(C)C)CC3)C(=O)N2` (single isomer, unassigned) [Example 352], the Ki worked out at 96.9 nM.

Take `CC(C)[C@@H]1CCc2nc(C(=O)N[C@H]3CCn4nccc4N(C)C3=O)nn21` (single isomer, unassigned) [Example 353]: the Ki came out at 49.8 nM.

On to `Cc1cc(F)c2c(c1)OC[C@H](NC(=O)c1nc3n(n1)[C@@H](C(C)C)CC3)C(=O)N2` (single isomer, unassigned) [Example 354], for which the Ki amounted to 4.5 nM.

For `CC[C@H]1CCc2nc(C(=O)N[C@H]3COc4ccccc4N(C)C3=O)nn21` (single isomer, unassigned) [Example 358], the Ki turned out to be 9 nM.

Regarding `CC[C@@H]1CCc2nc(C(=O)N[C@H]3COc4ccccc4N(C)C3=O)nn21` (single isomer, unassigned) [Example 359], the Ki is 303 nM.

Consider `CN1C(=O)[C@@H](NC(=O)c2nc3n(n2)[C@@H](c2ccccc2)CC3)CCn2nccc21` (single isomer, unassigned) [Example 362], for which the Ki amounted to 896 nM.

Turning to `CN1C(=O)[C@@H](NC(=O)c2nc3n(n2)[C@H](c2ccccc2)CC3)CCn2nccc21` (single isomer, unassigned) [Example 363], the Ki was found to be 21.2 nM.

In the case of `CN1C(=O)[C@@H](NC(=O)c2ncn(Cc3ccccc3)n2)CC[C@@H]2[C@H]1C2(F)F` (single isomer, unassigned) [Example 364], the Ki amounted to 450 nM.
